Data reported in patent US12054461B2, “Sulfonylurea derivatives and uses thereof” (NodThera Limited, priority 2019, dated 2024).

What was measured:
[1] = system: IL-1β release upon NLRP3 activation in peripheral blood mononuclear cells (PBMC); experiment: PBMC IC50 determination assay; assay type: cell-based; details: sodium salts tested, LPS 1 μg/ml 3 h, compound 30 min, ATP 5 mM 1 h, IL-1β by HTRF
Experimental: The compounds of the present disclosure were tested for their inhibitory activity against IL-1β release upon NLRP3 activation in peripheral blood mononuclear cells (PBMC).
PBMC were isolated from buffy coats by density gradient centrifugation on Histopaque-1077 (Sigma, cat no. 10771). Isolated cells were seeded into the wells (280,000 cells/well) of a 96-well plate and incubated for 3 h with lipopolysaccharide (LPS, 1 μg/ml diluted 1000× from a 1 mg/ml stock solution). The compounds of the present disclosure were added (a single compound per well) and the cells were incubated for 30 min. Next, the cells were stimulated with ATP (5 mM final concentration diluted 20× from a 100 mM stock solution) for 1 h and the cell culture media from the wells were collected for further analysis.
(§1) The release of IL-1β into the media was determined by quantitative detection of IL-1β in the media using HTRF®, CisBio cat. No. 62HIL1BPEH. Briefly, cell culture supernatant were dispensed directly into the assay plate containing antibodies labelled with the HTRF® donor and acceptor. A microplate spectrophotometer (BMG) was used to detect signals at 655 nm and 620 nm. The detection range of IL-1β HTRF® was 39-6500 pg/ml.

[2] = system: IL-1β release upon NLRP3 activation in human whole blood; experiment: Whole blood (WB) assay; assay type: cell-based; details: sodium salts tested, LPS 1 μg/ml 3 h, compound 30 min, ATP 5 mM 1 h, IL-1β by HTRF
Experimental: The compounds of the present disclosure were tested for their inhibitory activity against IL-1β release upon NLRP3 activation in human whole blood.
Whole blood was drawn from single healthy donors and treated with sodium heparin anticoagulant. Blood was diluted with cell culture media at a 9:5 ratio, seeded in a 96-well plate and incubated for 3 h with lipopolysaccharide (LPS, 1 μg/ml final concentration diluted 1000× from a 1 mg/ml stock solution). The compounds of the present disclosure were added (a single compound concentration per well) and the blood was incubated for 30 min. Next, the blood was stimulated with ATP (5 mM final concentration diluted 20× from a 100 mM stock solution) for 1 h and the cell culture media from the wells were collected for further analysis.
as §1, with “were diluted as appropriate to bring IL-1β levels within the HTRF® detection range (36-6500 pg/ml) and subsequently” for “were”, “dispensed” for “dispensed directly”, “nm.” for “nm. The detection range of IL-1β HTRF® was 39-6500 pg/ml.”

Structure (SMILES)	IC50 [1] [µM]	IC50 [2] [µM]
COCCN(c1cnn(C)c1)S(=O)(=O)NC(=O)Nc1c2c(cc3c1CCC3)CCC2 [Compound 1, 1-(1,2,3,5,6,7-Hexahydro-s-indacen-4-yl)-3-[(2-methoxyethyl)(1-methyl-1H-pyrazol-4-yl)sulfamoyl]urea]	< 0.1	1 to 3
COCC(COC)N(c1cnn(C)c1)S(=O)(=O)NC(=O)Nc1c2c(cc3c1CCC3)CCC2 [Compound 2, 3-[(1,3-Dimethoxypropan-2-yl)(1-methyl-1H-pyrazol-4-yl)sulfamoyl]-1-(1,2,3,5,6,7-hexahydro-s-indacen-4-yl)urea]	0.1 to 0.5	1 to 3
Cn1cc(N(CC(C)(C)O)S(=O)(=O)NC(=O)Nc2c3c(cc4c2CCC4)CCC3)cn1 [Compound 3, 1-(1,2,3,5,6,7-Hexahydro-s-indacen-4-yl)-3-[(2-hydroxy-2-methylpropyl)(1-methyl-1H-pyrazol-4-yl)sulfamoyl]urea]	0.1 to 0.5	1 to 3
Cn1cc(N(CCC(C)(C)O)S(=O)(=O)NC(=O)Nc2c3c(cc4c2CCC4)CCC3)cn1 [Compound 4, 1-(1,2,3,5,6,7-Hexahydro-s-indacen-4-yl)-3-[(3-hydroxy-3-methylbutyl)(1-methyl-1H-pyrazol-4-yl)sulfamoyl]urea]	< 0.1	1 to 3
CN(C)C1CCC(N(c2cnn(C)c2)S(=O)(=O)NC(=O)Nc2c3c(cc4c2CCC4)CCC3)C1 (stereo not shown) [Compound 5, 1-{[3-(Dimethylamino)cyclopentyl](1-methyl-1H-pyrazol-4-yl)sulfamoyl}-3-(1,2,3,5,6,7-hexahydro-s-indacen-4-yl)urea]	0.1 to 0.5	3 to 10
CN(C)C1CC(N(c2cnn(C)c2)S(=O)(=O)NC(=O)Nc2c3c(cc4c2CCC4)CCC3)C1 (stereo not shown) [Compound 6, 3-{[3-(Dimethylamino)cyclobutyl](1-methyl-1H-pyrazol-4-yl)sulfamoyl}-1-(1,2,3,5,6,7-hexahydro-s-indacen-4-yl)urea]	< 0.1	1 to 3
COCCCN(c1cnn(C)c1)S(=O)(=O)NC(=O)Nc1c2c(cc3c1CCC3)CCC2 [Compound 7, 1-(1,2,3,5,6,7-Hexahydro-s-indacen-4-yl)-3-[(3-methoxypropyl)(1-methyl-1H-pyrazol-4-yl)sulfamoyl]urea]	0.1 to 0.5	3 to 10
CN(C)CCN(c1cnn(C)c1)S(=O)(=O)NC(=O)Nc1c2c(cc3c1CCC3)CCC2 [Compound 8, 3-{[2-(Dimethylamino)ethyl](1-methyl-1H-pyrazol-4-yl)sulfamoyl}-1-(1,2,3,5,6,7-hexahydro-s-indacen-4-yl)urea]	< 0.1	< 1
CC(C)n1cc(N(CCN(C)C)S(=O)(=O)NC(=O)Nc2c3c(cc4c2CCC4)CCC3)cn1 [Compound 9, 1-{[2-(Dimethylamino)ethyl][1-(propan-2-yl)-1H-pyrazol-4-yl]sulfamoyl}-3-(1,2,3,5,6,7-hexahydro-s-indacen-4-yl)urea]	< 0.1	< 1
CN(C)CCCN(c1cnn(C)c1)S(=O)(=O)NC(=O)Nc1c2c(cc3c1CCC3)CCC2 [Compound 10, 3-{[3-(Dimethylamino)propyl](1-methyl-1H-pyrazol-4-yl)sulfamoyl}-1-(1,2,3,5,6,7-hexahydro-s-indacen-4-yl)urea]	0.1 to 0.5	10 to 20
CN(CCN(c1cnn(C)c1)S(=O)(=O)NC(=O)Nc1c2c(cc3c1CCC3)CCC2)C1COC1 [Compound 11, 1-(1,2,3,5,6,7-Hexahydro-s-indacen-4-yl)-3-({2-[methyl(oxetan-3-yl)amino]-ethyl}(1-methyl-1H-pyrazol-4-yl)sulfamoyl)urea]	< 0.1	1 to 3
